One compound from patent publication US20220168427A1 (Ranok Therapeutics (Hangzhou) Co. Ltd., priority 2019, published 2022) can be followed below.

A word on the Cmax: it is the peak of the concentration-time curve. A word on the Tmax: it is the time from dosing to the highest level. For orientation: half-life means how long it takes for the measured level to halve. Higher therefore signals slow loss. A word on the AUC(0-inf): it is the area under the concentration-time curve extrapolated to infinity. A low value points to less exposure.

The target of one data set is HSP90α (Homo sapiens, UniProt P07900). Put plainly: HSP90α Binding Fluorescent Polarization (FP) Assay. In outline:
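Duplicate wells held BSA buffer, FITC-geldanamycin tracer, compound (3-fold dilution plate spanning 40 μM–2.0 nM) and recombinant protein diluted to 28 μg/ml before addition. Polarization read at 30, 60 and 120 min, 25 °C. Background-corrected mP values gave IC50 through a four-parameter inhibitor-response fit.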

In another data set the test system is EGFR. As to the kind of experiment: HSP90 Client Protein Degradation Flow Cytometry Assay, EGFR in HEK-293 cells. The format is cell-based, human. The method, then: (§1) MV4-11 cells were plated in a 24-well tissue culture plate at a density of 350,000 cells/450 μL/well and incubated in 37° C./5% CO2 for 1 hr. Cells were then treated with compounds at various concentrations and incubated in 37° C./5% CO2 for 24 hr. Cells were harvested, washed once, counted and 200 μL of 1% paraformaldehyde/PBS was added and incubated for 15 min at room temperature. 200 μL of 1×PBS/0.4% Triton X-100 was added and incubated for 15 min at 4° C. Cells were washed three times and resuspended in 50 μL of 1×PBS/0.2% Triton X-100. 2 μL/10^6 cells of anti-BRD4 antibody (ABCAM, #128874) was added and mixed by pipetting up and down. Cells were incubated for 30 min at room temperature in the dark, washed three times and resuspended in 50 μL of 1×PBS/0.2% Triton X-100. Goat anti-rabbit IgG H&L antibody (1:2000 dilution) was added and mixed by pipetting up and down and incubated for 30 min at room temperature in the dark. Finally, cells were washed three times and resuspended in 200 μL of PBS for flow cytometric analysis.
Similar flow cytometry experiments for ERBB2 in BT-474 human breast carcinoma cells (ATCC, #HTB-20) and IGF1R, EGFR and RAF1 in HEK-293 human embryonic kidney (ATCC, #CRL-1573) were performed using anti-ERBB2 (R&D, #FAB1129P), anti-IGF1R (Cell Signaling Technology, #9750), anti-EGFR (Cell Signaling Technology, #139690) and anti-RAF1 (ABCAM, #ab181115) antibodies.

For data set [1], the system named is HSP90 client proteins (ERBB2, IGF1R, EGFR, RAF1). As to the kind of experiment: HSP90 Client Protein Degradation Flow Cytometry Assay, all clients together. Particulars: versus 59 nM for BRD4 degradation by western blotting in MV4-11 cells. In kind it is cell-based, human. The method, then: as §1
Similar flow cytometry experiments for ERBB2 in BT-474 human breast carcinoma cells (ATCC, #HTB-20) and IGF1R, EGFR and RAF1 in HEK-293 human embryonic kidney (ATCC, #CRL-1573) were performed using anti-ERBB2 (R&D, #FAB1129P), anti-IGF1R (Cell Signaling Technology, #9750), anti-EGFR (Cell Signaling Technology, #139690) and anti-RAF1 (ABCAM, #ab181115) antibodies. […]
Background: A flow cytometer gives signals particle by particle.

Data set [2] can be described thus: Pharmacokinetics and Tissue Distribution in the MV4-11 xenograft model. The format is in vivo, mice. The following applies: female, CB-17 SCID, mouse, 5 mg/kg single intravenous dose. The method, then:
Pharmacokinetics and Tissue Distribution
15 female CB-17 SCID mice (treated in accordance with AAALAC animal welfare guidelines) were weighed and administered 5 mg/kg of compound 074 by a single intravenous injection. 0.10 mL of blood was collected from each mouse by submandibular vein and sodium heparin was added as an anticoagulant. Samples were collected before compound administration, and at 1 hr, 6 hr 24 hr and 48 hr time points after administration, with 3 mice sampled per time point. After collection, samples were placed on ice and the animals sacrificed to collect tumor and normal tissues. The method development and analysis of all samples were performed by the analytical laboratory at Shanghai Medicilon Inc. Intra-day accuracy evaluation of samples for quality control was carried out during sample analysis and a quality control accuracy of more than 66.7% of samples was required between to be 80-120%. Pharmacokinetic parameters were calculated using Phoenix WinNonlin7.0 software.

`Cc1sc2c(c1C)C(c1ccc(Cl)cc1)=N[C@@H](CC(=O)N1CCC(CN3CCN(Cc4ccc(-n5c(O)nnc5-c5cc(C(C)C)c(O)cc5O)cc4)CC3)CC1)c1nnc(C)n1-2.Cl` [Compound 74, (S)-2-(4-(4-chlorophenyl)-2,3,9-trimethyl-6H-thieno[3,2-f][1,2,4]triazolo[4,3-a][1,4]diazepin-6-yl)-1-(4-((4-(4-(3-(2,4-dihydroxy-5-isopropylphenyl)-5-hydroxy-4H-1,2,4-triazol-4-yl)benzyl)piperazin-1-yl)methyl)piperidin-1-yl)ethan-1-one hydrochloride]: at HSP90α, the “potency in binding to HSP90, in words” value is “moderate potency”. Besides, the IC50 at HSP90α (competition with FITC-geldanamycin, read-out: HSP90 Binding Potency) was 0.1 to 1 µM; with EGFR, 0.405 µM. Moreover, in data set [1], the “IC50 for HSP90 clients higher than the IC50 value for BRD4 degradation” value was 6- to 18 fold. For the same compound, the Cmax amounted to 1640 ng/g in data set [2] (heart); 5040 ng/g in data set [2] (liver); 2030 ng/g in data set [2] (lung); 498 ng/mL in data set [2] (plasma); 462 ng/g in data set [2] (tumor). Moreover, the Tmax in data set [2] (heart), in data set [2] (liver), in data set [2] (lung), in data set [2] (plasma) and in data set [2] (tumor) was 1 h in each case. The half-life was 3.7 h in data set [2] (heart); 3.37 h in data set [2] (liver); 6.94 h in data set [2] (lung); 3.92 h in data set [2] (plasma); 32.1 h in data set [2] (tumor). Besides, in data set [2] (plasma), the AUC(0-inf) came to 3020 ng·h/mL.
